In the supplement of paper PMC4862054:
Several values for one entry are separate records, joined by “and”; a condition that tells them apart may be missing. Equal values may be shown once.

The compounds below were run on HCC1599 (assay: drug sensitivity score (DSS), CellTiter-Blue viability (DSS (AUC-based score)); higher = stronger viability inhibition; extreme values may be limits of the assay). Details: incubation time: 72 h.
Procedure, shortened: (§1)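 Each 384-well plate was normalised to two references, 0.1 % DMSO and a positive kill control. Breast cancer cell lines (20 µl suspension) had been seeded onto compound at 5 or 9 concentrations and incubated 72 h, after which viability was read by CellTiter-Blue fluorescence at 560/590 nm. The drug sensitivity score reflects the area under the fitted dose-response curve.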

Row | Compound | drug sensitivity score
1 | COc1c2occc2cc2ccc(=O)oc12 [Methoxsalen] | 0
2 | CO[C@@H]1[C@H](N(C)C(=O)c2ccccc2)C[C@H]2O[C@]1(C)n1c3ccccc3c3c4c(c5c6ccccc6n2c5c31)C(=O)NC4 [Midostaurin] | 3.48
3 | CO[C@@]12[C@H](COC(N)=O)C3=C(C(=O)C(C)=C(N)C3=O)N1C[C@@H]1N[C@@H]12 [Mitomycin C] | 8.65
4 | CCNC(=O)c1noc(-c2cc(C(C)C)c(O)cc2O)c1-c1ccc(CN2CCOCC2)cc1 [NVP-AUY922] | 9.96
5 | CC1(C)CCC(c2ccc(Cl)cc2)=C(CN2CCN(c3ccc(C(=O)NS(=O)(=O)c4ccc(N[C@H](CCN5CCOCC5)CSc5ccccc5)c(S(=O)(=O)C(F)(F)F)c4)cc3)CC2)C1 [Navitoclax] | 5.97
6 | Cc1cn(-c2cc(NC(=O)c3ccc(C)c(Nc4nccc(-c5cccnc5)n4)c3)cc(C(F)(F)F)c2)cn1 [Nilotinib] | 0
7 | C=CCN(/C=C1/C(=O)O[C@H](COC)[C@@]2(C)C1=C(O)C(=O)C1=C2[C@H](OC(C)=O)C[C@]2(C)C(=O)CC[C@@H]12)CC=C [PX-866] | 0
8 | CC[C@H](CO)Nc1nc(NCc2ccccc2)c2ncn(C(C)C)c2n1 [Roscovitine] | 2.39

The compounds below were run on HCC1143 in the same assay as above. Details: incubation time: 72 h.
Procedure, shortened: as §1

Row | Compound | drug sensitivity score
9 | COc1c2occc2cc2ccc(=O)oc12 [Methoxsalen] | 0
10 | CO[C@@H]1[C@H](N(C)C(=O)c2ccccc2)C[C@H]2O[C@]1(C)n1c3ccccc3c3c4c(c5c6ccccc6n2c5c31)C(=O)NC4 [Midostaurin] | 4.83
11 | CO[C@@]12[C@H](COC(N)=O)C3=C(C(=O)C(C)=C(N)C3=O)N1C[C@@H]1N[C@@H]12 [Mitomycin C] | 8.46
12 | CCNC(=O)c1noc(-c2cc(C(C)C)c(O)cc2O)c1-c1ccc(CN2CCOCC2)cc1 [NVP-AUY922] | 9.99
13 | CC1(C)CCC(c2ccc(Cl)cc2)=C(CN2CCN(c3ccc(C(=O)NS(=O)(=O)c4ccc(N[C@H](CCN5CCOCC5)CSc5ccccc5)c(S(=O)(=O)C(F)(F)F)c4)cc3)CC2)C1 [Navitoclax] | 0
14 | Cc1cn(-c2cc(NC(=O)c3ccc(C)c(Nc4nccc(-c5cccnc5)n4)c3)cc(C(F)(F)F)c2)cn1 [Nilotinib] | 0
15 | C=CCN(/C=C1/C(=O)O[C@H](COC)[C@@]2(C)C1=C(O)C(=O)C1=C2[C@H](OC(C)=O)C[C@]2(C)C(=O)CC[C@@H]12)CC=C [PX-866] | 3.95
16 | CC[C@H](CO)Nc1nc(NCc2ccccc2)c2ncn(C(C)C)c2n1 [Roscovitine] | 5.44

Each compound was assayed on DU-4475 in the same assay as above. Details: incubation time: 72 h.
Procedure, shortened: as §1

Row | Compound | drug sensitivity score
17 | COc1c2occc2cc2ccc(=O)oc12 [Methoxsalen] | 0.558
18 | CO[C@@H]1[C@H](N(C)C(=O)c2ccccc2)C[C@H]2O[C@]1(C)n1c3ccccc3c3c4c(c5c6ccccc6n2c5c31)C(=O)NC4 [Midostaurin] | 15.8
19 | CO[C@@]12[C@H](COC(N)=O)C3=C(C(=O)C(C)=C(N)C3=O)N1C[C@@H]1N[C@@H]12 [Mitomycin C] | 3.3
20 | CCNC(=O)c1noc(-c2cc(C(C)C)c(O)cc2O)c1-c1ccc(CN2CCOCC2)cc1 [NVP-AUY922] | 21.7
21 | CC1(C)CCC(c2ccc(Cl)cc2)=C(CN2CCN(c3ccc(C(=O)NS(=O)(=O)c4ccc(N[C@H](CCN5CCOCC5)CSc5ccccc5)c(S(=O)(=O)C(F)(F)F)c4)cc3)CC2)C1 [Navitoclax] | 17.2
22 | Cc1cn(-c2cc(NC(=O)c3ccc(C)c(Nc4nccc(-c5cccnc5)n4)c3)cc(C(F)(F)F)c2)cn1 [Nilotinib] | 0
23 | C=CCN(/C=C1/C(=O)O[C@H](COC)[C@@]2(C)C1=C(O)C(=O)C1=C2[C@H](OC(C)=O)C[C@]2(C)C(=O)CC[C@@H]12)CC=C [PX-866] | 0
24 | CC[C@H](CO)Nc1nc(NCc2ccccc2)c2ncn(C(C)C)c2n1 [Roscovitine] | 0

These compounds were tested on MDA-MB-436 in the same assay as above. Details: incubation time: 72 h.
Procedure, shortened: as §1

Row | Compound | drug sensitivity score
25 | COc1c2occc2cc2ccc(=O)oc12 [Methoxsalen] | 0
26 | CO[C@@H]1[C@H](N(C)C(=O)c2ccccc2)C[C@H]2O[C@]1(C)n1c3ccccc3c3c4c(c5c6ccccc6n2c5c31)C(=O)NC4 [Midostaurin] | 8.07
27 | CO[C@@]12[C@H](COC(N)=O)C3=C(C(=O)C(C)=C(N)C3=O)N1C[C@@H]1N[C@@H]12 [Mitomycin C] | 6.47
28 | CCNC(=O)c1noc(-c2cc(C(C)C)c(O)cc2O)c1-c1ccc(CN2CCOCC2)cc1 [NVP-AUY922] | 20.7
29 | CC1(C)CCC(c2ccc(Cl)cc2)=C(CN2CCN(c3ccc(C(=O)NS(=O)(=O)c4ccc(N[C@H](CCN5CCOCC5)CSc5ccccc5)c(S(=O)(=O)C(F)(F)F)c4)cc3)CC2)C1 [Navitoclax] | 0
30 | Cc1cn(-c2cc(NC(=O)c3ccc(C)c(Nc4nccc(-c5cccnc5)n4)c3)cc(C(F)(F)F)c2)cn1 [Nilotinib] | 0
31 | C=CCN(/C=C1/C(=O)O[C@H](COC)[C@@]2(C)C1=C(O)C(=O)C1=C2[C@H](OC(C)=O)C[C@]2(C)C(=O)CC[C@@H]12)CC=C [PX-866] | 0
32 | CC[C@H](CO)Nc1nc(NCc2ccccc2)c2ncn(C(C)C)c2n1 [Roscovitine] | 0.894

The compounds below were run on HCC1937 in the same assay as above. Details: incubation time: 72 h.
Procedure, shortened: as §1

Row | Compound | drug sensitivity score
33 | COc1c2occc2cc2ccc(=O)oc12 [Methoxsalen] | 0
34 | CO[C@@H]1[C@H](N(C)C(=O)c2ccccc2)C[C@H]2O[C@]1(C)n1c3ccccc3c3c4c(c5c6ccccc6n2c5c31)C(=O)NC4 [Midostaurin] | 10
35 | CO[C@@]12[C@H](COC(N)=O)C3=C(C(=O)C(C)=C(N)C3=O)N1C[C@@H]1N[C@@H]12 [Mitomycin C] | 14.1
36 | CCNC(=O)c1noc(-c2cc(C(C)C)c(O)cc2O)c1-c1ccc(CN2CCOCC2)cc1 [NVP-AUY922] | 26.1
37 | CC1(C)CCC(c2ccc(Cl)cc2)=C(CN2CCN(c3ccc(C(=O)NS(=O)(=O)c4ccc(N[C@H](CCN5CCOCC5)CSc5ccccc5)c(S(=O)(=O)C(F)(F)F)c4)cc3)CC2)C1 [Navitoclax] | 0
38 | Cc1cn(-c2cc(NC(=O)c3ccc(C)c(Nc4nccc(-c5cccnc5)n4)c3)cc(C(F)(F)F)c2)cn1 [Nilotinib] | 6.24 and 6.45
39 | C=CCN(/C=C1/C(=O)O[C@H](COC)[C@@]2(C)C1=C(O)C(=O)C1=C2[C@H](OC(C)=O)C[C@]2(C)C(=O)CC[C@@H]12)CC=C [PX-866] | 5.15
40 | CC[C@H](CO)Nc1nc(NCc2ccccc2)c2ncn(C(C)C)c2n1 [Roscovitine] | 0

The compounds below were run on Hs578T in the same assay as above. Details: incubation time: 72 h.
Procedure, shortened: as §1

Row | Compound | drug sensitivity score
41 | COc1c2occc2cc2ccc(=O)oc12 [Methoxsalen] | 0
